# Patent US20080249081A1, “COMPOUNDS FOR THE TREATMENT OF PAIN AND SCREENING METHODS THEREFOR” (priority 2006, published 2008)
# How the values were obtained:
# human MrgX2 receptor = biological target: T1, human MrgX2 receptor (Homo sapiens, UniProt Q96LB1); assay: Receptor Selection and Amplification Technology (R-SAT) functional assay, transfected NIH3T3 cells; assay type: cell-based; settings: for Human-MrgX2 Eff(%): percent maximal activation relative to STIA
# T1 construct: expressed in transfected cells; host or cells: NIH3T3
# T1 sequence (Q96LB1 1-330): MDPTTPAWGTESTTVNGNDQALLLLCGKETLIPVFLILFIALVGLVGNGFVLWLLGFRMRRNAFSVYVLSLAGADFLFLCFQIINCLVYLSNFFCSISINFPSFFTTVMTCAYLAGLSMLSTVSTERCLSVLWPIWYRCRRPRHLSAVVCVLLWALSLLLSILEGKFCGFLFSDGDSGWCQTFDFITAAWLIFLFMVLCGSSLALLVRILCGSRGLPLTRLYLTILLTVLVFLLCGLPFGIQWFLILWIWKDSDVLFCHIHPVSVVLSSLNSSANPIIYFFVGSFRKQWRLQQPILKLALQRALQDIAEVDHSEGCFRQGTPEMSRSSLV
# Procedure: (§1) The functional receptor assay, Receptor Selection and Amplification Technology (R-SAT), was used to investigate the pharmacological properties of test compounds on MRGX1 or MRGX2 receptors. R-SAT is disclosed in U.S. Pat. Nos. 5,707,798, 5,912,132, and 5,955,281, each of which is incorporated by reference herein in its entirety, including any drawings.
# (§2) Briefly, NIH3T3 cells were grown in 96-well tissue culture plates to 70-80% confluence. Cells were transfected for 16-20 h with plasmid DNAs using Polyfect (Qiagen Inc.) and the manufacturer's protocols. R-SATs were generally performed with 4 ng/well of receptor and 20 ng/well of β-galactosidase plasmid DNA. The human MrgX1, simian MrgX1, human MrgX2 and simian MrgX2 receptor genes were amplified by PCR from genomic DNA using oligodeoxynucleotide primers as described in U.S. patent application Ser. No. 11/359,209, which is incorporated by reference herein in its entirety, including any drawings. For large-scale transfections, cells were transfected for 16-20 h, then trypsinized and frozen in DMSO. Frozen cells were later thawed, plated at ˜10,000 cells per well of a 96 half-area well plate that contained test compound. With both methods, cells were then grown in a humidified atmosphere with 5% ambient CO2 for five days. The medium was then removed from the plates and marker gene activity was measured by the addition of the β-galactosidase substrate o-nitrophenyl β-D-galactopyranoside (ONPG, in PBS with 0.5% NP-40). The resulting […] reaction was measured in a spectrophotometric plate reader (Titertek Inc.) at 420 nm. All data were analyzed using the computer program XLFit (IDBSm). Efficacy is defined as the percent maximal activation compared to activation by a control compound (BAM22 in the case of human or simian MRGX1, STIA or Cortistatin-14 in the case of human or simian MRGX2). pEC50 is the negative of log(EC50), where EC50 is the calculated molar concentration of test compound that produces 50% of maximum activation.
# (§3) Efficacy is reported relative to the ligands Bam22 for MrgX1 and STIA for MrgX2.
# human MrgX1 receptor [1] = biological target: T2, human MrgX1 receptor (Homo sapiens, UniProt Q96LB2); assay: as above; assay type: cell-based; parameters: expressed in transfected cells; host or cells: NIH3T3; settings: for EC50 / Human-MrgX1 pEC50: pEC50 = negative log of molar EC50; for Human-MrgX1 Eff(%): percent maximal activation relative to Bam22
# T2 sequence (Q96LB2 whole entry): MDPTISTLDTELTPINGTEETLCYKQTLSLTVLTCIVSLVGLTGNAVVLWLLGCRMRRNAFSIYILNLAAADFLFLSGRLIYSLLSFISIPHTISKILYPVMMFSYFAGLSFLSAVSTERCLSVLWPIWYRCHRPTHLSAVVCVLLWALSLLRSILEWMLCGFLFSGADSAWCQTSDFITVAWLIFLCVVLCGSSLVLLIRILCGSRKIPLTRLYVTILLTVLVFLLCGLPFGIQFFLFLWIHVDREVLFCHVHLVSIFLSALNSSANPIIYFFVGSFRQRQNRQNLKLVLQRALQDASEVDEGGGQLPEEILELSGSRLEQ
# Procedure: as §1, §2, §3
# human MrgX1 receptor [2] = biological target: T2, human MrgX1 receptor; assay: Intracellular calcium mobilization (Fura-2) in transfected cells; assay type: cell-based; parameters: expressed in transfected cells; settings: for MrgX1 pEC50: human MrgX1; for MrgX1 Eff %: normalized to response to BAM22 (100%)
# Procedure: 1. CHO-K1 cells transfected with human MrgX1, simian MrgX1, human MrgX2 and simian MrgX2 receptors or a control receptor at a density 1-3×10^6 cells/mL were washed with phosphate-buffered saline.
# 2. Cells were loaded with 2 μM Fura-2 and analyzed with respect to the rise in intracellular calcium in the presence or absence of varying concentration of test compound.
# 3. The response was compared to that elicited by the application of the standard reference ligands BAM22 or Cortistatin-14 at 100 nM.
# 4. Intracellular free calcium concentrations were calculated using the formula:
# [formula] • where Kd for Fura-2 is 224 nM, Fmax is the fluorescence in the presence of 0.04% Triton-X100 and Fmin is the fluorescence obtained after the addition of 5 mM EGTA in 30 mM Tris-HCl, pH7.4.
# simian MrgX2 receptor = biological target: T3, simian MrgX2 receptor (Macaca mulatta, UniProt Q4QXU5); assay: Receptor Selection and Amplification Technology (R-SAT) functional assay, transfected NIH3T3 cells; assay type: cell-based, rhesus monkey; settings: for Monkey-MrgX2 Eff(%): percent maximal activation relative to STIA
# T3 construct: expressed in transfected cells; host or cells: NIH3T3
# T3 sequence (Q4QXU5 whole entry): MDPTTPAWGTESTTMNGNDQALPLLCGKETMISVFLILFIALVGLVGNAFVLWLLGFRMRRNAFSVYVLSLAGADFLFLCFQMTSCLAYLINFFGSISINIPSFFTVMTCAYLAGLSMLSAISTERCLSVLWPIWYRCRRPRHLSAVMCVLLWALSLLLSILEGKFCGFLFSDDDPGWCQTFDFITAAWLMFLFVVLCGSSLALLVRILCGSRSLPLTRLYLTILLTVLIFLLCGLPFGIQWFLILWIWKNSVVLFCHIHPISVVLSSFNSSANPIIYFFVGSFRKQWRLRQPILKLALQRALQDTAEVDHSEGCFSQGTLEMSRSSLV
# Procedure: as §1, §2, §3
# simian MrgX1 receptor = simian MrgX1 receptor (Macaca mulatta, UniProt A0A5F7ZSN8); assay: as above; assay type: cell-based, rhesus monkey; settings: percent maximal activation relative to Bam22, read-out: Monkey-MrgX1 Eff(%)
# simian MrgX1 receptor, sequence (A0A5F7ZSN8 1-322): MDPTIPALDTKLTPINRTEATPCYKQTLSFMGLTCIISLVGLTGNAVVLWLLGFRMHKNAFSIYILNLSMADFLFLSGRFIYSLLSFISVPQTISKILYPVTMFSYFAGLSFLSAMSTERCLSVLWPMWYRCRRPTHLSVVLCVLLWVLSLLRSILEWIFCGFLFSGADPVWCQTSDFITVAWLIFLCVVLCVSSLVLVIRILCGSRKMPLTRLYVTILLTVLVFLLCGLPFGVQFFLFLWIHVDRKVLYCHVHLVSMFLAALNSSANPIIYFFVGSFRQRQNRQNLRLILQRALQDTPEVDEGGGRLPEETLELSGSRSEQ
# Procedure: as §1, §2, §3
SMILES,Human-MrgX2 pEC50 (human MrgX2 receptor),Human-MrgX2 Eff(%) (human MrgX2 receptor),EC50 (human MrgX1 receptor [1]) [nM],Human-MrgX1 Eff(%) (human MrgX1 receptor [1]),MrgX1 pEC50 (human MrgX1 receptor [2]),MrgX1 Eff % (human MrgX1 receptor [2]) [%],Monkey-MrgX2 pEC50 (simian MrgX2 receptor),Monkey-MrgX2 Eff(%) (simian MrgX2 receptor),Emax (simian MrgX1 receptor) [%],Human-MrgX1 pEC50 (human MrgX1 receptor [1])
"Cc1cccc(N2CCN(C(=O)c3ccc4c(c3)nc(-c3cccc(Oc5ccccc5)c3)n4[C@@H](CCCNC(=N)N)C(N)=O)CC2C)c1 (stereo partly drawn) [Compound 2, (α^1R)-α-[3-[(aminoiminomethyl)amino]propyl]-5-[[3-methyl-4-(3-methylphenyl)-1-piperazinyl]carbonyl]-2-(3-phenoxyphenyl)-1H-benzimidazole-1-acetamide]",nr,17,631,220,7.6,92,,22,316,
"N=C(N)NCCC[C@@H](C(N)=O)n1c(-c2cccc(Oc3ccccc3)c2)nc2cc(C(=O)NCCc3ccccn3)ccc21 [Compound 3, (α^1R)-α-[3-[(aminoiminomethyl)amino]propyl]-2-(3-phenoxyphenyl)-5-[[[2-(2-pyridinyl)ethyl]amino]carbonyl]-1H-benzimidazole-1-acetamide]",nr,4,158,176,6.4,106,,4,160,
"CN(CCc1ccccn1)C(=O)c1ccc2c(c1)nc(-c1cccc(Oc3ccccc3)c1)n2[C@@H](CCCNC(=N)N)C(N)=O [Compound 4, (α^1R)-α-[3-[(aminoiminomethyl)amino]propyl]-5-[[methyl[2-(2-pyridinyl)ethyl]amino]carbonyl]-2-(3-phenoxyphenyl)-1H-benzimidazole-1-acetamide]",nr,46,1000,325,6.7,112,,18,107,
COc1ccc(NC(=O)c2ccc3c(c2)nc(-c2cccc(Oc4ccccc4)c2)n3C(CCCNC(=N)N)C(N)=O)cc1 (stereo not drawn) [Compound 27],nr,4,,133,,,,,,6.1
CCCCNC(=O)c1ccc2c(c1)nc(-c1cccc(Oc3ccccc3)c1)n2C(CCCNC(=N)N)C(N)=O (stereo not drawn) [Compound 30],nr,11,,150,,,,,,6.2

# Second part, the compound after the results:
Human-MrgX2 pEC50 (human MrgX2 receptor),Human-MrgX2 Eff(%) (human MrgX2 receptor),EC50 (human MrgX1 receptor [1]) [nM],Human-MrgX1 Eff(%) (human MrgX1 receptor [1]),MrgX1 pEC50 (human MrgX1 receptor [2]),MrgX1 Eff % (human MrgX1 receptor [2]) [%],Monkey-MrgX2 pEC50 (simian MrgX2 receptor),Monkey-MrgX2 Eff(%) (simian MrgX2 receptor),Emax (simian MrgX1 receptor) [%],Human-MrgX1 pEC50 (human MrgX1 receptor [1]),SMILES
nr,−1,1000,146,6.6,88,<4.5,25,148,,"N=C(N)NCCC[C@@H](C(N)=O)n1c(-c2cccc(Oc3ccccc3)c2)nc2cc(C(=O)N3CCN(c4ccc(F)cc4)CC3)ccc21 [Compound 1, (α^1R)-α-[3-[(aminoiminomethyl)amino]propyl]-5-[[4-(4-fluorophenyl)-1-piperazinyl]carbonyl]-2-(3-phenoxyphenyl)-1H-benzimidazole-1-acetamide]"
nr,6,,73,,,,,,5.6,N=C(N)NCCCC(C(N)=O)n1c(-c2cccc(Oc3ccccc3)c2)nc2cc(C(=O)Nc3nccs3)ccc21 (stereo not drawn) [Compound 31]
